For 23 compounds, IC50 results are on record in patent publication US20200291018A1, “TAM KINASE INHIBITORS” (SYROS PHARMACEUTICALS, INC., priority 2017, published 2020).

Some results are limits rather than exact numbers.

One assay concerns the target T1, FLT3 (Homo sapiens, UniProt P36888).
T1 sequence (P36888 27-993): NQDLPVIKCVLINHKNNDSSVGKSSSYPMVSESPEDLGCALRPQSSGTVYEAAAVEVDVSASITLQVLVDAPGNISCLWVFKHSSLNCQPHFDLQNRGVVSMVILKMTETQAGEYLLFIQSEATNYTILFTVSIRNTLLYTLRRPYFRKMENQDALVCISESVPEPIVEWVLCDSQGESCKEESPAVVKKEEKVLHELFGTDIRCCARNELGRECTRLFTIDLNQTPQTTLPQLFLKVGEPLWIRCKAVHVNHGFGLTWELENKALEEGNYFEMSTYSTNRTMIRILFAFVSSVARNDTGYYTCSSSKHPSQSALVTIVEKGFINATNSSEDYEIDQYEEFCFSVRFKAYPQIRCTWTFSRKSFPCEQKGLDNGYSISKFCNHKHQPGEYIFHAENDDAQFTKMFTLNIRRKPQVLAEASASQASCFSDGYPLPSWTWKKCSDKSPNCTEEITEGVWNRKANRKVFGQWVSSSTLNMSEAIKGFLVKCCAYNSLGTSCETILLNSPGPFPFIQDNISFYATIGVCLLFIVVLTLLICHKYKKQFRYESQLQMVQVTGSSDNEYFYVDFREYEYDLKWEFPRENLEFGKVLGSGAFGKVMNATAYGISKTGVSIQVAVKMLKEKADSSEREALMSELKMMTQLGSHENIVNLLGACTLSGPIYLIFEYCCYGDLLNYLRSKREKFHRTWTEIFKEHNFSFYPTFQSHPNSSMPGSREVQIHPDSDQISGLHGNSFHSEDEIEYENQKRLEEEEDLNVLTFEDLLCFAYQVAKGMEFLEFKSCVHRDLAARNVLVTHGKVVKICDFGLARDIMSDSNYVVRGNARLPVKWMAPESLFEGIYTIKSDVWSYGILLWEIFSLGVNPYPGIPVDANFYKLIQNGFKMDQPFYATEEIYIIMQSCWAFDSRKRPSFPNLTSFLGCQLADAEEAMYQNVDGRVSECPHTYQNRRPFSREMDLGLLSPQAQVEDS
The assay can be described thus: TR-FRET kinase activity assay, FLT3. As to conditions: ATP at Km, 60 minutes. It counts as biochemical. In short, it runs like this: (§1)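 IC50 came from TR-FRET signal after 30 min dark development with a Europium-labeled phospho-specific antibody. This followed a 60 min RT reaction, stopped with EDTA, started with ATP at Km per enzyme. Peptide substrate, enzyme and compound were premixed in HEPES pH 7.5 buffer with MgCl2, EGTA, Brij 35 and DTT.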
(Time-resolved FRET reads energy transfer from a long-lived donor to a nearby acceptor.)

The next assay addresses T2, TYRO3 (Homo sapiens, UniProt Q06418).
T2 sequence (Q06418 41-890): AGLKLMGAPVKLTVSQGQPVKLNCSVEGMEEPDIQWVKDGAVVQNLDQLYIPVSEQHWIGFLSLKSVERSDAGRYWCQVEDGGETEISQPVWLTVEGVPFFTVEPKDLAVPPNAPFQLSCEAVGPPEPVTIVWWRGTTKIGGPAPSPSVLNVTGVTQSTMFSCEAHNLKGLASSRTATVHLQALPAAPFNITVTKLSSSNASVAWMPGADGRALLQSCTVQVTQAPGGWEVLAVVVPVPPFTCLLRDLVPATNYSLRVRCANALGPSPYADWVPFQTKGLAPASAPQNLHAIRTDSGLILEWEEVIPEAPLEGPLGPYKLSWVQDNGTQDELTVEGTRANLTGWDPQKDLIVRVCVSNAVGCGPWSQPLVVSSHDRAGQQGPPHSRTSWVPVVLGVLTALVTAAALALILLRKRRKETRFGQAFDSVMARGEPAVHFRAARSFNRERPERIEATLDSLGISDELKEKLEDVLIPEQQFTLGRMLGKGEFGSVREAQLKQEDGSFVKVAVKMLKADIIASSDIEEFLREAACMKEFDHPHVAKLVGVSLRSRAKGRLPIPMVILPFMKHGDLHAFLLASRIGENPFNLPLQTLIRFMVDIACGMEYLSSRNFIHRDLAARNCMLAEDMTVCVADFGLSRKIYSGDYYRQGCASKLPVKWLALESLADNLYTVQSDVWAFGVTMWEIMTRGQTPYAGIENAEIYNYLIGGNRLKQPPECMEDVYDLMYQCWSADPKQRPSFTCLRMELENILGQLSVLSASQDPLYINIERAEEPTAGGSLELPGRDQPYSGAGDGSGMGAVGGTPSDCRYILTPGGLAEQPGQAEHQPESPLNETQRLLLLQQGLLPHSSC
The assay can be described thus: TR-FRET kinase activity assay, TYRO3. As to conditions: ATP at Km, 60 minutes. The class given is biochemical. In short, it runs like this:
as §1

By IC50 is commonly meant the point on the concentration scale where inhibition reaches its midpoint. With `CCCC(C)Nc1ncc2c(N(C)C3CCNCC3)ncc([C@H]3CC[C@H](O)CC3)c2n1` (stereo partly shown) [Compound 179], the IC50 against FLT3 was 1000 to 10000 nM; on TYRO3 it was at most 100 nM.

Regarding `CCCC(C)Nc1ncc2c(N3CCC[C@H](N(C)C)C3)ncc([C@H]3CC[C@H](O)CC3)c2n1` (stereo partly shown) [Compound 180], the IC50 is 1000 to 10000 nM against FLT3 and at most 100 nM at TYRO3.

As for `CCCC(C)Nc1ncc2c(N3CC(N(C)C)C3)ncc([C@H]3CC[C@H](O)CC3)c2n1` (stereo partly shown) [Compound 181], the values for the IC50 against FLT3 and at TYRO3 were 1000 to 10000 nM and above 10000 nM, respectively.

For the compound `CCCC(C)Nc1ncc2c(OCCN3CCOCC3)ncc([C@H]3CC[C@H](O)CC3)c2n1` (stereo partly shown) [Compound 182], the IC50 on FLT3 and at TYRO3 was 100 to 1000 nM in each case.

On to `O[C@H]1CC[C@H](c2cnc(OC3CCNCC3)c3cnc(NC4CCCCC4)nc32)CC1` [Compound 183], for which the IC50 at FLT3 is 100 to 1000 nM; against TYRO3 it was above 10000 nM.

Turning to `CCCC(C)Nc1ncc2c(OC3CCOCC3)ncc([C@H]3CC[C@@H](N(C)C)CC3)c2n1` (stereo partly shown) [Compound 184], the IC50 against FLT3 was 1000 to 10000 nM; at TYRO3, above 10000 nM.

Regarding `CCCC(C)Nc1ncc2c(OC3CCOCC3)ncc([C@H]3CC[C@H](N(C)C)CC3)c2n1` (stereo partly shown) [Compound 185], the IC50 is 100 to 1000 nM at FLT3 and above 10000 nM on TYRO3.

Regarding `CCCC(C)Nc1ncc2c(=O)n(C3CCN(C(C)C)CC3)cc([C@H]3CC[C@H](O)CC3)c2n1` (stereo partly shown) [Compound 186], the IC50 was 1000 to 10000 nM on FLT3 and above 10000 nM at TYRO3.

`CCCC(C)Nc1ncc2c(O[C@H]3C[C@H](O)C3)ncc([C@H]3CC[C@H](O)CC3)c2n1` (stereo partly shown) [Compound 187]: the values for the IC50 on FLT3 and against TYRO3 were 100 to 1000 nM and at most 100 nM, respectively.

In the case of `CCCC(C)Nc1ncc2c(N3CCC[C@@H](N(C)C)C3)ncc([C@H]3CC[C@H](O)CC3)c2n1` (stereo partly shown) [Compound 188], the IC50 on FLT3 was 1000 to 10000 nM; against TYRO3, above 10000 nM.

For the compound `C[C@H](Nc1ncc2c(OC3CCNCC3)ncc([C@H]3CC[C@H](O)CC3)c2n1)c1ccccc1` [Compound 189], the IC50 is 1000 to 10000 nM against FLT3 and above 10000 nM against TYRO3.

Regarding `CCC[C@H](C)Nc1ncc2c(OC3CCN(C)CC3)ncc([C@H]3CC[C@H](O)CC3)c2n1` [Compound 190], the results for the IC50 at FLT3 and against TYRO3 were 1000 to 10000 nM and 100 to 1000 nM, respectively.

Regarding `CCCC(C)Nc1ncc2c(OCCN(C)C)ncc([C@H]3CC[C@H](O)CC3)c2n1` (stereo partly shown) [Compound 191], the IC50 at FLT3 is 1000 to 10000 nM; against TYRO3, above 10000 nM.

On to `CCCC(C)Nc1ncc2c(=O)n(C3CCN(C(=O)CN(C)C)CC3)cc([C@H]3CC[C@H](O)CC3)c2n1` (stereo partly shown) [Compound 192], for which the IC50 against FLT3 was 1000 to 10000 nM; against TYRO3 it was above 10000 nM.

On to `CCCC(C)Nc1ncc2c(=O)n(CC3CCN(C)CC3)cc([C@H]3CC[C@H](O)CC3)c2n1` (stereo partly shown) [Compound 193], for which the IC50 is 1000 to 10000 nM at FLT3 and above 10000 nM on TYRO3.

Consider `C[C@@H](CC(F)(F)F)Nc1ncc2c(O[C@H]3C[C@](C)(O)C3)ncc([C@H]3CC[C@H](O)CC3)c2n1` [Compound 430], for which the IC50 at FLT3 is 100 to 1000 nM; at TYRO3, at most 100 nM.

On to `COC[C@H](C)Nc1ncc2c(O[C@H]3C[C@@H](O)C3(C)C)ncc([C@H]3CC[C@H](O)CC3)c2n1` [Compound 431], for which the IC50 against FLT3 was 1000 to 10000 nM; at TYRO3, at most 100 nM.

Turning to `COCCN1[C@@H]2CC[C@H]1C[C@H](Oc1ncc([C@H]3CC[C@H](O)CC3)c3nc(N[C@@H](C)CC(F)(F)F)ncc13)C2` [Compound 432], the results for the IC50 at FLT3 and at TYRO3 were 100 to 1000 nM and at most 100 nM, respectively.

For the compound `CC(=O)N[C@H]1C[C@@H](Oc2ncc([C@H]3CC[C@H](O)CC3)c3nc(N[C@@H](C)CC(F)(F)F)ncc23)C1` [Compound 433], the IC50 against FLT3 is 100 to 1000 nM; against TYRO3 it was at most 100 nM.

`CO[C@H]1C[C@@H](Oc2ncc([C@H]3CC[C@H](O)CC3)c3nc(N[C@@H](C)CC(F)(F)F)ncc23)C1` [Compound 434]: the figures for the IC50 against FLT3 and against TYRO3 were 100 to 1000 nM and at most 100 nM, respectively.

In the case of `COC(=O)N[C@H]1C[C@@H](Oc2ncc([C@H]3CC[C@H](O)CC3)c3nc(N[C@@H](C)CC(F)(F)F)ncc23)C1` [Compound 435], the IC50 at FLT3 and at TYRO3 was at most 100 nM throughout.

Consider `CC(=O)N1[C@@H]2CC[C@H]1C[C@H](Oc1ncc([C@H]3CC[C@H](O)CC3)c3nc(N[C@@H](C)CC(F)(F)F)ncc13)C2` [Compound 436], for which the IC50 was 100 to 1000 nM at FLT3 and at most 100 nM on TYRO3.

`C[C@@H](CC(F)(F)F)Nc1ncc2c(O[C@@H]3C[C@H]4CC[C@@H](C3)N4C3COC3)ncc([C@H]3CC[C@H](O)CC3)c2n1` [Compound 437]: the figures for the IC50 on FLT3 and against TYRO3 were 100 to 1000 nM and at most 100 nM, respectively.
